pIC50: −log10 of the molar value. Active and inactive are the calls of the source. The calls are words filed in the database; no cut-off is given here.
Assays:
[1] = Antioxidant activity assessed as DPPH radical scavenging activity incubated for 30 mins; type: physicochemical
Staphylococcus aureus = experiment: Antimicrobial activity against methicillin-resistant Staphylococcus aureus; type: functional, organism-based
Klebsiella pneumoniae = experiment: Antimicrobial activity against Klebsiella pneumoniae; type: functional, organism-based
MIA PaCa-2 = experiment: Cytotoxicity against human MIAPaCa2 cells by MTT assay; type: functional, cell-based

In the case of O=C1c2c3c(cc(O)c2[C@H](O)[C@H](O)[C@@H]1Cl)-c1ccc(O)c2c(O)ccc-3c12, the pIC50 [1] was 5.44, the Activity (Staphylococcus aureus) was “inactive” and the Activity (Klebsiella pneumoniae) was “inactive”. The Activity (MIA PaCa-2) was “inactive”.

With O=C1c2c3c(cc(O)c2[C@H](O)[C@@H]2O[C@H]12)-c1ccc(O)c2c(O)ccc-3c12 the pIC50 [1] was 5.51, the Activity (Staphylococcus aureus) was “inactive” and the Activity (Klebsiella pneumoniae) was “inactive”. For the same molecule, the Activity (MIA PaCa-2) was “inactive”.

Work on O=C1O[C@H]([C@@H](O)CO)C(O)=C1O [ASCORBIC ACID] yielded a pIC50 [1] of 5.49.

From ChEMBL document CHEMBL3351245, “Chlorinated polyketide obtained from a Daldinia sp. treated with the epigenetic modifier suberoylanilide hydroxamic acid” (J Nat Prod, 2014)
